This passage reports AC50, IC50 and EC50 results from ChEMBL document CHEMBL1201862, “PubChem BioAssay data set” (2004).

Active and inactive are the calls of the source.

Among the targets are Cytochrome P450 2D6 (Homo sapiens, UniProt P10635); Cytochrome P450 2C9 (Homo sapiens, UniProt P11712); Cytochrome P450 3A4 (Homo sapiens, UniProt P08684).
The next data set concerns the target T1, Cytochrome P450 1A2 (Homo sapiens, UniProt P05177).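 Note: PubChem cytochrome P450 panel assay, CYP1A2 panel member.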
T1 sequence (P05177 whole entry): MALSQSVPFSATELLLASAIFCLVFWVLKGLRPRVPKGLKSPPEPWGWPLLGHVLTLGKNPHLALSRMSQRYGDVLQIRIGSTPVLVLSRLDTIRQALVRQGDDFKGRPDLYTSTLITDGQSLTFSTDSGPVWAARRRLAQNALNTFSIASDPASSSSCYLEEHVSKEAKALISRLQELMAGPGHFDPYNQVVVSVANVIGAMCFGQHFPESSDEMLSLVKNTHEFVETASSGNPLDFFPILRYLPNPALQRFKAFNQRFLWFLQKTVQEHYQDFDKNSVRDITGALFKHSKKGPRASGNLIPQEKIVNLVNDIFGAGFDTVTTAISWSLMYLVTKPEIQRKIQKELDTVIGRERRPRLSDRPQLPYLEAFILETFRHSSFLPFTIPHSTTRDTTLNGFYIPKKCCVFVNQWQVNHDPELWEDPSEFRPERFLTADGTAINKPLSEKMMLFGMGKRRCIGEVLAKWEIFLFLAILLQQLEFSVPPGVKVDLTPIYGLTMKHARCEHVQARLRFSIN

For the next data set, the target named is Cytochrome P450 2C19 (Homo sapiens, UniProt P33261). Nature of the data set: Cytochrome panel assay with activity outcomes. Panel member name: p450-cyp2c19 Compounds with AC50 equal or less than 10 uM are considered active. Format: functional.
Cytochrome P450 2C19, sequence (P33261 whole entry): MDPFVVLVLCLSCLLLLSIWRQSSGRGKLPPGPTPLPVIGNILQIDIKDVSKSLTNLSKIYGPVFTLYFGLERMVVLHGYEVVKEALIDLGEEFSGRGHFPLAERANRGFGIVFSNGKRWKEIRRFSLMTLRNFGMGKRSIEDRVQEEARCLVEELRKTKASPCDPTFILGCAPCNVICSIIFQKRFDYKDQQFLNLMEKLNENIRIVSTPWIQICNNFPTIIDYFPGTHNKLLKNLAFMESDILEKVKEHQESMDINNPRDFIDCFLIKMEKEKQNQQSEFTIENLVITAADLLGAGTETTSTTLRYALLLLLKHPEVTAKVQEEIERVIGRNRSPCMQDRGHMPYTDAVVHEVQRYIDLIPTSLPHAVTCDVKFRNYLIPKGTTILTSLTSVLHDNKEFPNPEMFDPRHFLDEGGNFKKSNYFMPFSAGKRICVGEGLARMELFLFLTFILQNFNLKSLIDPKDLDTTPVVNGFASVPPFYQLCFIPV
The nature of data set [1]: Luminescence Cell-Based Dose Retest to Confirm Inhibitors of Cancer Stem Cells. [Related pubchem assays (depositor defined):AID2717, AID2721]. Format: functional. The following applies: Homo sapiens.
Data set [2] concerns the target T2, Rac GTPase-activating protein 1 (Homo sapiens, UniProt Q9H0H5).
T2 sequence (Q9H0H5 whole entry): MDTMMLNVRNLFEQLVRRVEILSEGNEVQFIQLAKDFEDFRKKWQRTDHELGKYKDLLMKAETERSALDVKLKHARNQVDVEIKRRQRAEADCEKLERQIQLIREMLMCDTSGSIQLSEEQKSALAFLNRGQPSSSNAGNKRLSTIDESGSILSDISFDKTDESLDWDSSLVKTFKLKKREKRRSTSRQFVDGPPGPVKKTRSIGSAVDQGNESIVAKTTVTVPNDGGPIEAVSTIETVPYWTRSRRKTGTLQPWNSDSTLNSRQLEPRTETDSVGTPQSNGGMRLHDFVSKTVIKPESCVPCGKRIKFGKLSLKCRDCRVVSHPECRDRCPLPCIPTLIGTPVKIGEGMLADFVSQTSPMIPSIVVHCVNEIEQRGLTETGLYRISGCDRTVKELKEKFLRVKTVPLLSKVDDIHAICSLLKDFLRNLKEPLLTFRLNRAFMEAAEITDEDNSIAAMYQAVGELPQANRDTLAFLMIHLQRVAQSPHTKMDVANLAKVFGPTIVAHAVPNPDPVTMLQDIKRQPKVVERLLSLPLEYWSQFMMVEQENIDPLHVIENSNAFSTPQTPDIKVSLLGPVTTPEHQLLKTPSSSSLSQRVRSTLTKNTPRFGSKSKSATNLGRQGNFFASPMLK
Description: MgcRacGAP GTPase-activating activity inhibitors, confirmation, biochemical, ADP Hunter fluorescence, primary and confirmatory (AID 624330). The format is functional.

Data set [3] in a line: growth suppression of beta-catenin-knockout colon cells, dose response, cell-based, HCT116, human colon tumor (AID 1045).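 Note: HCT116 colon tumor cells with beta catenin knocked out; cells exposed to compound for 60 hours.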 Format: functional.
Data set [4] can be described thus: growth suppression of PTEN-null colon cells, dose response, cell-based, HCT116 PTEN knockout (AID 1047).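 Note: HCT116 colon tumor cells with PTEN knocked out; cells exposed to compound for 60 hours before readout; potency for loss of cell viability measured by luminescence.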 The format is functional.
Data set [5] has as its system Streptococcus sp. 'group A'. Nature of the data set: growth inhibition of control SK(-) GAS strain, dose response, counter-screen for streptokinase expression inhibitor project, luminescence, kanamycin, BacTiterGlo, confirmation (AID 1900). Format: functional, organism-based.
In a further data set the test system is Streptococcus. Description: Group A Streptococcus viability loss, dose response, counter-screen for streptokinase expression inhibitor project, luminescence, BacTiterGlo (AID 1915).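 Note: potency for reduction of bacterial viability or growth.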 The format is functional, organism-based. In general terms: Counterscreens check selectivity or assay interference.
For data set [6], the target named is T3, Heat shock factor protein 1 (Mus musculus, UniProt P38532).
T3 sequence (P38532 whole entry): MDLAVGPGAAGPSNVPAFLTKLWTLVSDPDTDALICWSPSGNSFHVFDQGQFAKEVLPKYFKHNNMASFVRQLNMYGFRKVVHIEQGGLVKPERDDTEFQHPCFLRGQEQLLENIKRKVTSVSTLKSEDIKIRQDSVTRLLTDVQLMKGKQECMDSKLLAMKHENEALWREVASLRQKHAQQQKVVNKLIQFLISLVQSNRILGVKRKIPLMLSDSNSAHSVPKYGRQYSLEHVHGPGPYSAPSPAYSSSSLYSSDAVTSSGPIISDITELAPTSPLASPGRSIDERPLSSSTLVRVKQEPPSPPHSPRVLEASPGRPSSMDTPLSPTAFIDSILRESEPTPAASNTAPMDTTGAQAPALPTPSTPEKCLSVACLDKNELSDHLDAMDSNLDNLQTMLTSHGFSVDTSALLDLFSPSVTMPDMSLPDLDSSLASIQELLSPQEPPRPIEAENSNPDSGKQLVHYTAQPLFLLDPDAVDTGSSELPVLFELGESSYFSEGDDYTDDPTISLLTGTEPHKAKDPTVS
Nature of the data set: inhibition of MG132-induced HSE-luciferase signal, confirmation, cell-based, NIH3T3, luminescence, dose retest (AID 2382).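 Note: NIH3T3 fibroblasts with HSF1-driven luciferase reporter stressed by proteasome inhibitor MG132; luminescence from HSF1-driven luciferase expression after 8 hours of MG132 stress.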 Format: functional.

Cytochrome P450 2C9, sequence (P11712 whole entry): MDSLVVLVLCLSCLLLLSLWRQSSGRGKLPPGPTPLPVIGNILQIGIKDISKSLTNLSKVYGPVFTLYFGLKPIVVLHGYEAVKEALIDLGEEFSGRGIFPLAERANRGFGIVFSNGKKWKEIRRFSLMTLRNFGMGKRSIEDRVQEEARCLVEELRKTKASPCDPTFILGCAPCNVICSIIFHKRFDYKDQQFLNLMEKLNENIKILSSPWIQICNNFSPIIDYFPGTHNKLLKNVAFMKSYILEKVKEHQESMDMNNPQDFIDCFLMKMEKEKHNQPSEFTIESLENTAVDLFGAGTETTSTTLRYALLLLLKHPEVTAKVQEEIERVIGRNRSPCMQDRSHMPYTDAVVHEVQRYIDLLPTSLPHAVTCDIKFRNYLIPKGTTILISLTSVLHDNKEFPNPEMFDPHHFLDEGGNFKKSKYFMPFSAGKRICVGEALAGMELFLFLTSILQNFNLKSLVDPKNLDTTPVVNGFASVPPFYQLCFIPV
Cytochrome P450 3A4, sequence (P08684 whole entry): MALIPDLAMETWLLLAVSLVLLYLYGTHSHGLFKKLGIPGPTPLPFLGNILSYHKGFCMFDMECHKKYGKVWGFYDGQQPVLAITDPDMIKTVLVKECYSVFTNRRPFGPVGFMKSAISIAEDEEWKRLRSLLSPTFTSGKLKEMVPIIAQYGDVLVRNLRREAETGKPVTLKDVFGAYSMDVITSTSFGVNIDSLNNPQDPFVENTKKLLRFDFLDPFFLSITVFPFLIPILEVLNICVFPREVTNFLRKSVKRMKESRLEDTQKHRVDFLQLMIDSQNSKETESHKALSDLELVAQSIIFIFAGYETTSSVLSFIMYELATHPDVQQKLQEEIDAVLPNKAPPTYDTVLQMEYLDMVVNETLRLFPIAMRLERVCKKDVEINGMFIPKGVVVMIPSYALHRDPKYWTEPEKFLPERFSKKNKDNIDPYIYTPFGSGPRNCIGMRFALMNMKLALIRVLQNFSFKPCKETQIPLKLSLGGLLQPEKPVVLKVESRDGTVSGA
Cytochrome P450 2D6, sequence (P10635 whole entry): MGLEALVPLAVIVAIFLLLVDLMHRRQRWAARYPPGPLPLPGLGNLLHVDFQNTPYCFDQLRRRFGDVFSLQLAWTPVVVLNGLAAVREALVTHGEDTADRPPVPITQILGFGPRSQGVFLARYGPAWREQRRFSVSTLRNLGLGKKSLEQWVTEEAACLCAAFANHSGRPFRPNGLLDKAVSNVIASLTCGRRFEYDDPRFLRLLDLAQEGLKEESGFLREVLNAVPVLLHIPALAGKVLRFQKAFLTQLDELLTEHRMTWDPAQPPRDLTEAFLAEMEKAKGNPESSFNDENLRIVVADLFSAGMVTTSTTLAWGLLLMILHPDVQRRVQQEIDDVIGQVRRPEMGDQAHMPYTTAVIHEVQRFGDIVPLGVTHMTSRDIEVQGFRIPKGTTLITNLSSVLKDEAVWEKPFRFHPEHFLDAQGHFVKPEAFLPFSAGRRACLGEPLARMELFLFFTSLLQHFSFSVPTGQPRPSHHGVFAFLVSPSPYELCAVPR

As a reminder, the AC50 is the midpoint of the concentration-response curve, whichever way the signal moves. Take `C=C(CC1([C@@H](NP(=O)(c2ccccc2)c2ccccc2)[C@H]2C[C@@H]2CCCC)CC1)c1cccc(OC)c1`: the AC50 on Cytochrome P450 2D6 is 39.8 µM (inconclusive); at Cytochrome P450 1A2, 12.6 µM (inconclusive); on Cytochrome P450 2C9, 39.8 µM (inconclusive); on Cytochrome P450 2C19 (read-out: AC50) it was 15.8 µM (inconclusive).

For the compound `CCCCOc1ccc(C(=O)Nc2ccc3c(c2)OCO3)cc1`, in data set [1], the AC50 is 1.46 µM (active).

For the compound `CC1CCN(c2ccc(NC(=S)NC(=O)c3ccco3)cc2)CC1`, the concentration at half-maximal activity (AC50) is 28.2 µM (inconclusive) on Cytochrome P450 1A2, 17.8 µM (inconclusive) at Cytochrome P450 3A4, 1.41 µM (inconclusive) on Cytochrome P450 2C9 and 3.98 µM (inconclusive) on Cytochrome P450 2C19 (read-out: AC50).

`CC(=O)Oc1ccc(C2=NN(c3ccccc3)C(c3ccccc3)C2)cc1` (stereo unspecified): the half-maximal activity concentration (AC50) in data set [1] was 2.63 µM (active).

`Cc1ccc(Nc2cc(C)c3ccc(O)cc3n2)cc1C`: in data set [1], the AC50 is 4.45 µM (active).

Consider `Cc1ccc(CN2CCSc3ccc(C(=O)NCc4ccco4)cc32)cc1`, for which the AC50 in data set [1] was 12.1 µM (active).

Take `CC(=O)Nc1ccc2c(c1)/C(=C/c1ccc([N+](C)(C)C)cc1)c1ccccc1-2`: the values for the concentration at half-maximal activity (AC50) at Cytochrome P450 1A2 and on Cytochrome P450 2C9 were 1.58 µM (inconclusive) and 3.16 µM (inconclusive), respectively.

In the case of `O=C1N[C@@]2(CN3CCC2CC3)C(=O)N1CN(Cc1ccccc1)c1ccccc1`, the half-maximal activity concentration (AC50) at Cytochrome P450 1A2 was 0.398 µM (inconclusive); at Cytochrome P450 2C19 (read-out: AC50), 1.58 µM (inconclusive).

For the compound `O=[N+]([O-])c1ccc(COc2ccc(-c3[nH]ncc3-c3ccccc3)c(O)c2)cc1`, the concentration at half-maximal activity (AC50) in data set [1] was 4.73 µM (active).

Turning to `Cn1c(=O)c(C(=O)NNC(=O)c2ccc(Br)cc2)c(O)c2ccccc21`, the AC50 in data set [1] is 3.03 µM (active).

For `Cc1cccc(-n2ncc3c(N4CCCc5ccccc54)ncnc32)c1`, the AC50 in [1] is 7.31 µM (active).

As to `Cc1ccc(C(=O)NC(=S)Nc2ccc(S(=O)(=O)N3CCN(C)CC3)cc2)cc1`, the AC50 is 12.6 µM (inconclusive) at Cytochrome P450 1A2 and 0.891 µM (inconclusive) at Cytochrome P450 3A4.

As usually defined, the IC50 is the concentration that gives 50% inhibition. With `Cc1ccccc1CN1CCN(C(=O)c2cccc3ccccc23)CC1`, the concentration for half-maximal inhibition (IC50) in [2] is 215 µM (active).

On to `COCCNC(=S)Nc1cc(OC)c(OC)cc1C#N`, for which the IC50 in data set [2] is 204 µM (active).

By EC50 is commonly meant the concentration needed to bring the measured effect to its halfway point. Turning to `COc1ccc(C2c3c(ncn(Cc4ccco4)c3=N)Oc3ccc4ccccc4c32)cc1` (stereo unspecified), the figures for the EC50 in [3] and in data set [4] were 8.89 µM (active) and 9.97 µM (active), respectively. In data set [1], the AC50 is 4.48 µM (active).

`O=C(c1cccc(F)c1)N1CCC2(CCN(Cc3ccncc3)CC2)CC1`: the concentration at half-maximal activity (AC50) at Cytochrome P450 2D6 is 12.6 µM (inconclusive); at Cytochrome P450 1A2, 12.6 µM (inconclusive); at Cytochrome P450 3A4, 15.8 µM (inconclusive); at Cytochrome P450 2C19 (read-out: AC50), 25.1 µM (inconclusive).

As for `C=C(C)COc1ccc(-c2[nH]nc(C)c2-c2ccc(Br)cc2)c(O)c1`, the half-maximal effective concentration (EC50) in [5] is 2.99 µM (active); in the data set on Streptococcus, 4.72 µM (active). For the same compound, the half-maximal activity concentration (AC50) in data set [1] is 0.692 µM (active).

Take `COc1cc(/C=C/C(=O)OCC(=O)N2CCN(C(=O)c3ccco3)CC2)ccc1O`: the IC50 in data set [2] is 44.8 µM (active).

As for `CC(=O)[C@H](C(=N)C#N)C(=O)Nc1ccccc1`, the AC50 at Cytochrome P450 1A2 is 6.31 µM (inconclusive); on Cytochrome P450 2C19, “inconclusive”.

For the compound `CN(C)C(=O)/C(C#N)=C\c1cc(Br)c(Sc2ccc(Cl)cc2)o1`, the AC50 in [1] is 4.82 µM (active).

Regarding `O=c1c(-c2cccs2)nc2cnc(N3CCOCC3)nc2n1Cc1cccs1`, the concentration at half-maximal activity (AC50) at Cytochrome P450 1A2 is 15.8 µM (inconclusive); on Cytochrome P450 3A4, 10 µM (inconclusive).

Regarding `CCCCNC(=O)CN1C(=O)NC2(CCCc3ccccc32)C1=O` (stereo unspecified), the results for the AC50 on Cytochrome P450 1A2 and at Cytochrome P450 2C19 (read-out: AC50) were 25.1 µM (inconclusive) and 31.6 µM (inconclusive), respectively.

As for `COc1ccc(-c2c[nH]nc2-c2ccc(O)cc2O)cc1OC`, in data set [2], the concentration for half-maximal inhibition (IC50) was 60.2 µM (active).

Regarding `C#CCOCCOCCOCCNc1nc(N2CCN(C(=O)CCCCCCCCCCNC(=O)Cn3cc(C[C@@H](C)O)nn3)CC2)nc(N2CCN(C(=O)CCCCCCCCCCNC(=O)[C@@H]([C@H](C)O)n3cc(C)nn3)CC2)n1`, the AC50 in data set [1] is 4.67 µM (active).

Take `Cc1[nH]n(-c2ccc([N+](=O)[O-])cc2)c(=O)c1/C=N/CCN1CCN(C(=O)C(C)C)CC1`: in data set [6], the 50% effective concentration (EC50) was > 195 µM (not active). Besides, the half-maximal activity concentration (AC50) in data set [1] was 4.61 µM (active).

For the compound `Oc1ccc(/N=C(\S)Nc2ccc(O)cc2)cc1`, the IC50 in data set [2] was 41.7 µM (active).
